Results from patent US20240336565A1, “SOLID FORMS OF OSANETANT” (Acer Therapeutics, Inc., priority 2021, published 2024).
“Also recorded” adds a separate entry of the source.

How the values were obtained:
Type in all cases: physicochemical
[1] = Disproportionation study (stirring in water, XRPD, pH of liquor); settings: 10 mg in 1 mL of water, 24 h at 25° C.
Procedure: After 24 h total, a white slurry was observed and was isolated by centrifugation. The solids were analyzed by XRPD. The pH of the filtered liquor was measured at 5.63. […] After 24 h total, a white slurry was observed and was isolated by centrifugation. The solids were analyzed by XRPD. The pH of the filtered liquor was measured (pH=5.09).

[2] = Long term stability: base (2M NaOH) at 60° C.; settings: 2M NaOH, 60° C., up to 14 days
Procedure: (§1) Osanetant p-toluenesulfonic acid Form 1 and osanetant benzenesulfonic acid Form 1 were tested for long-term stability across a number of different conditions, as detailed below.
(§2) Base at 60° C.—Osanetant p-toluenesulfonic acid Form 1 and osanetant benzenesulfonic acid Form 1 were prepared at an osanetant content 10 times the normal working concentration then added to HPLC vials containing 2M NaOH and stored in a darkened oven at 60° C. Samples were diluted to 2 mg/mL for analysis and were taken after T=1, 2, 4, 7, and 14 days storage. […] The purity of the resulting material is described in Table 45: […]

[3] = Long term stability: acid stability (2M HCl) at ambient temperature; settings: 2M HCl, dark, ambient, up to 14 days
Procedure: as §1
as §2, with “Acid Stability” for “Base”, “Ambient Temperature-Osanetant” for “60° C.—Osanetant”, “HCl” for “NaOH”, “the dark” for “a darkened oven”, “ambient laboratory conditions.” for “60° C.”, “42:” for “45:”

SMILES: CC(=O)N(C)C1(c2ccccc2)CCN(CCC[C@]2(c3ccc(Cl)c(Cl)c3)CCCN(C(=O)c3ccccc3)C2)CC1.Cc1ccc(S(=O)(=O)O)cc1 [osanetant p-toluenesulfonic acid Form 1, (R)-N-(1-(3-(1-benzoyl-3-(3,4-dichlorophenyl)piperidin-3-yl)propyl)-4-phenylpiperidin-4-yl)-N-methylacetamide p-toluenesulfonic acid]
- XRPD form / disproportionation after stirring in water [1]: no change in form; also recorded: did not disproportionate
- pH of the filtered liquor [1]: 5.63
- degradation on storage (purity) [2]: lack of degradation
- degradation on storage (purity) [3]: lack of degradation
